We go through five molecules from US20090123501A1, “INHIBITION OF THE SH2-DOMAIN CONTAINING PROTEIN TYR-PHOSPHATASE, SHP-1, TO ENHANCE VACCINES” (Baylor College of Medicine, priority 2007, published 2009).

The subject of one test is NFκB signaling. Nature of the test: NFκB-dependent secreted alkaline phosphatase reporter in RAW cells. It is filed as cell-based, murine. Particulars: transient transfection, IFNγ or LPS stimulation. As for the experimental part:
(§1) Function of the mutant and wt SHP-1 constructs was tested in RAW cells by transient transfection of SHP-1 vectors along with a reporter construct expressing a secreted alkaline phosphatase driven by either an NFκB or AP-1 dependent promoter. NFκB and AP-1 are major transcription factors stimulated by toll-like receptor (TLR) and cytokine signaling in immune system cells, and represent likely pathways of SHP-1 inhibition on cellular activation. Cells were transfected with the appropriate construct, reporter and then stimulated with interferon-γ (IFNγ) or bacterial lipopolysaccharide (LPS) as ligands for cytokine and TLR receptors respectively.

A further test has as its system AP-1 signaling. Description: AP-1-dependent secreted alkaline phosphatase reporter in RAW cells. The format is cell-based, murine. Particulars: transient transfection, IFNγ or LPS stimulation. As to the method: as §1
The target of test [1] is T1, H-2K^b (Mus musculus, UniProt P01901).
T1 construct: surface stabilization assay using the TAP1 deficient cell line RMA-S; endogenous in cells; host or cells: RMA-S
T1 sequence (P01901 22-369): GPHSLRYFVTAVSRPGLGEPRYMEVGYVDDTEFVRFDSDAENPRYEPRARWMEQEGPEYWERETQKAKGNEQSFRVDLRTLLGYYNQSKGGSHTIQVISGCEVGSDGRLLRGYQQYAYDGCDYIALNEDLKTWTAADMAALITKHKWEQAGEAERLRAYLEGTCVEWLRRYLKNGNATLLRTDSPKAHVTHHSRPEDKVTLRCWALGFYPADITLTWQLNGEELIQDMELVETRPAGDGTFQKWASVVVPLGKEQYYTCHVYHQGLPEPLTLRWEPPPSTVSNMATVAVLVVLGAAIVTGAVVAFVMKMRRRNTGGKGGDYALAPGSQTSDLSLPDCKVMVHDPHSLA
T1 sequence (P01887 21-119 partner): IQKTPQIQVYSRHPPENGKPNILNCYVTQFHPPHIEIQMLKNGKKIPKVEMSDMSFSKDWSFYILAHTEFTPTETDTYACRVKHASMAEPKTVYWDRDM
Nature of the test: MHC class I surface stabilization assay on RMA-S cells, H-2Kb. Particulars: RMA-S cells pulsed with peptide overnight, flow cytometry. It is filed as binding. As to the method: 10^6 RMA-S cells were incubated overnight at 37° C. with each of the five predicted at the concentrations indicated. Cells were stained with antibodies for H-2K^b (Y-3; ATCC-HB176) or H-2D^b (28-14-8S; ATCC-HB27) followed by a goat anti-mouse-FITC second step and MHC class I surface expression was analyzed by flow cytometry. Specific MFI is the mean fluorescent intensity of the sample-mean fluorescent intensity of goat anti-mouse-FITC second step alone. Error bars represent the standard deviation of triplicate measurements.
(§2) The binding affinity of the five predicted peptides was tested. In a surface stabilization assay using the TAP1 deficient cell line RMA-S. RMA-S cells were pulsed with peptide, at the indicated concentrations, and incubated overnight. Cells were stained with antibodies for H-2K^b (Y-3; ATCC-HB176) or H-2D^b (28-14-8S; ATCC-HB27) followed by a fluorescent-labeled secondary antibody and MHC class I surface expression was analyzed by flow cytometry.
On the technique in general: A flow cytometer gives signals particle by particle.

Test [2] addresses T2, H-2K^b (mouse, UniProt P01887 21-119; P01901 22-305, limits assumed).
T2 construct: whole, on cells;extracellular; MHC class I on RMA-S cells, detected with antibody Y-3 (ATCC-HB176) in a surface stabilization assay; also called MHC class 1 molecule H-2K^b
T2 sequence (MHC heavy, looked up): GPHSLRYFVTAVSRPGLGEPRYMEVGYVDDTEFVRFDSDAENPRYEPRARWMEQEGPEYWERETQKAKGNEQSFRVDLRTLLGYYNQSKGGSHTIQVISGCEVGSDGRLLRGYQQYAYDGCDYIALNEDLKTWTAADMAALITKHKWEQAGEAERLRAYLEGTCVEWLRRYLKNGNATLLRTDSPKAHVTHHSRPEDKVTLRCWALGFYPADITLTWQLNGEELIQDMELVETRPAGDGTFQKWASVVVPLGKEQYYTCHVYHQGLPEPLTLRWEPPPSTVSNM
T2 sequence (b2m, looked up): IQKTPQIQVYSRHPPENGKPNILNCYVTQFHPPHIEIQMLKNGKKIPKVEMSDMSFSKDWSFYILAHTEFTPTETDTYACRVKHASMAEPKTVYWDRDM
Nature of the test: RMA-S surface stabilization assay, flow cytometry with antibody Y-3; reference peptide. As for the experimental part:
In Table 1, OVA Kb binding peptide […] was used as control for a known good binder.
(§3) 10⁶ RMA-S cells were incubated overnight at 37° C. with each of the five predicted at the concentrations indicated. Cells were stained with antibodies for H-2K^b (Y-3; ATCC-HB176) or H-2D^b (28-14-8S; ATCC-HB27) followed by a goat anti-mouse-FITC second step and MHC class I surface expression was analyzed by flow cytometry. Specific MFI is the mean fluorescent intensity of the sample-mean fluorescent intensity of goat anti-mouse-FITC second step alone. Error bars represent the standard deviation of triplicate measurements. This is representative of 3 separate studies.
as §2, with “cytometry. […] STEAP₈₄₋₉₁ and STEAP₁₈₆₋₁₉₂ bound with an affinity near that of OVA₂₅₈₋₂₆₅, a well characterized strong binding H-2K^b epitope from chicken ovalbumin. […]” for “cytometry.”

For a further test, the target named is T3, H-2D^b (mouse, UniProt P01887 21-119; P01899 25-309).
T3 construct: whole, on cells;extracellular; MHC class I on RMA-S cells, detected with antibody 28-14-8S (ATCC-HB27) in a surface stabilization assay; also called MHC class 1 molecule H-2D^b
T3 sequence (MHC heavy, looked up): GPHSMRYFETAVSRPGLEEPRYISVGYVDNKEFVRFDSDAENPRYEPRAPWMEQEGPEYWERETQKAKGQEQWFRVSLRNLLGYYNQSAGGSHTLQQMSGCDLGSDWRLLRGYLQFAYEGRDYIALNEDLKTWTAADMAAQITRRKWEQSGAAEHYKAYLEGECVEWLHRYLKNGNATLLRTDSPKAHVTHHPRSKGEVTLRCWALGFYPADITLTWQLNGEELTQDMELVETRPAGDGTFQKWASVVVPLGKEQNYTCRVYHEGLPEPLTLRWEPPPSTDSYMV
T3 sequence (b2m, looked up): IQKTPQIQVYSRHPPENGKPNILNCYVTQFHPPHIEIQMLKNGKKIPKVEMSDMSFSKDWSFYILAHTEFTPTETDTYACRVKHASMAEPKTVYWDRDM
Description: RMA-S surface stabilization assay, flow cytometry of MHC class I surface expression. As to the method: as §3
as §2, with “cytometry. […] STEAP₈₄₋₉₁ and STEAP₁₈₆₋₁₉₂ bound with an affinity near that of OVA₂₅₈₋₂₆₅, a well characterized strong binding H-2K^b epitope from chicken ovalbumin. […]” for “cytometry.”

“dn-SHP-1: phosphatase dead dominant negative SHP-1 C453S mutant construct, HA-tagged (SEQ ID NO:8)”: in the test on NFκB signaling, the NFκB signaling entry is “enhanced both NFκB and AP-1 signaling”. In addition, in the test with AP-1 signaling, the AP-1 signaling result was “enhanced both NFκB and AP-1 signaling”.

Regarding RSYRYKLL [STEAP186-192], the “relative binding affinity to H-2Kb (MHC class I surface expression)” value at H-2K^b [1] is reported as “bound with an affinity near that of OVA258-265”.

Take LTFLYTLL [STEAP84-91]: the “relative binding affinity to H-2Kb (MHC class I surface expression)” value on H-2K^b [1] is given as “bound with an affinity near that of OVA258-265”.

With SIINFEKL (also called OVA peptide) [OVA258-265], the binding result with H-2K^b [2] is given as “binds”.

On to LLLGTVHAL (also called LLLGTVHAL) [STEAP262-270], for which the binding result in the test with H-2D^b is listed as “no binding”.
